{"source": "patent US20250241891A1", "about": "“TREATMENT OF ANXIETY” (GH RESEARCH IRELAND LIMITED, priority 2022, published 2025)", "test_system": "patients with postpartum depression (PPD)", "experiment": "Clinical trial of inhaled 5-MeO-DMT in postpartum depression (MADRS, BPRS, BIMF, PES, safety)", "protocol": "The single-arm, open-label clinical trial will involve 15 adult female patients with clinically diagnosed postpartum depression (PPD).\nThe second dose (12 mg) will only be administered if: • a. […] The 6 mg dose was safe and well-tolerated according to the investigator, • c. Any psychoactive effects (PsE) of the prior dose have subsided, and • d. Pre-dose vital parameters and forced expiratory volume in one second (FEV1) are in normal range, or if outside of the normal range, are not clinically significant according to the investigator. • 3. Similarly, a third dose (18 mg) will only be administered if: • a. […] The 12 mg dose was safe and well-tolerated according to the investigator, and • c. Any PsE of the prior dose have subsided, and • d. Pre-dose vital parameters and forced expiratory volume in one second (FEV1) are in normal range, or if outside of the normal range, are not clinically significant according to the investigator.\nThe patients will be assessed for a peak psychedelic experience (based on a patient-scored visual analogue scale, the PE scale), sedation, and other endpoints after dosing. Follow-up visits are planned for Day 1, and Day 7 after the dosing day.\nThe following criteria must be met by all patients considered for clinical trial participation: • 1. Is female and in the age range between 18 and 45 years (inclusive) at screening. • 2. Has a body mass index (BMI) in the range of 18.5 and 35 kg/m^2 (inclusive) at screening. • 3. Meets the trial criteria for PPD as assessed by a trial psychiatrist or registered psychologist: • a. Diagnosis of Major Depressive Disorder without psychotic features, confirmed by the Mini-International Neuropsychiatric Interview (MINI), with peri-partum onset that began no earlier than gestation and no later than the first 4 weeks postpartum. • b. Has a Montgomery-Åsberg Depression Rating Scale (MADRS) total score of equal to or greater than 28 at screening and pre-dose on Day 0. • 6. […] Patients must have a negative pregnancy test at screening and on the pre-test day (Day −1). • 5. Is willing to delay start of other antidepressant or anxiety medication until after the end of the trial at Day 7 and agrees to keep any psychotherapy unchanged during the trial.\nA potential patient who meets any of the following key exclusion criteria will be excluded from participation in this trial: • 1. Has, based on history, psychiatric assessment, and evaluation of the MINI, a current or prior diagnosis of bipolar disorder, a manic or hypomanic episode, a psychotic disorder, Major Depressive Disorder (MDD) or other mood disorder with psychotic features, obsessive compulsive disorder, post-traumatic stress disorder (PTSD), autism spectrum disorder, borderline personality disorder, schizophrenia, delusional disorder, paranoid personality disorder, schizoaffective disorder, clinically significant intellectual disability, or any other psychiatric comorbidity that renders the patient unsuitable for the trial according to the investigator's judgment. • 2. Has one or more first or second degree relatives with a current or previously diagnosed bipolar disorder, psychotic disorder or other mood disorder (including MDD) with psychotic features. • 3. Is in the judgement of a trial psychiatrist or registered psychologist, at significant risk for suicide based on history, psychiatric assessment, and evaluation of suicidal ideation and suicidal behaviour based on the Columbia-Suicide Severity Rating Scale (C-SSRS). • 4. Has taken anti-depressive medication within 14 days or 5 half-lives (whichever is longer) prior to dosing (exception: within the last 5 weeks in the case of fluoxetine). • 5.", "key": {"[1]": {"details": "PPD n=1, IDR 6+12 mg inhaled, day 1, baseline 5"}, "[2]": {"details": "PPD n=1, IDR 6+12 mg inhaled, day 1, baseline 6"}, "[3]": {"details": "PPD n=1, IDR 6+12 mg inhaled, day 1, baseline 7"}, "[4]": {"details": "PPD n=1, IDR 6+12 mg inhaled, day 7, baseline 0"}, "[5]": {"details": "PPD n=1, IDR 6+12 mg inhaled, day 7, baseline 1"}, "[6]": {"details": "PPD n=1, IDR 6+12 mg inhaled, day 7, baseline 2"}, "[7]": {"details": "PPD n=1, IDR 6+12 mg inhaled, day 7, baseline 3"}, "[8]": {"details": "PPD n=1, IDR 6+12 mg inhaled, day 7, baseline 4"}, "[9]": {"details": "PPD n=1, IDR 6+12 mg inhaled, day 7, baseline 5"}, "[10]": {"details": "PPD n=1, IDR 6+12 mg inhaled, day 7, baseline 6"}, "[11]": {"details": "PPD n=1, IDR 6+12 mg inhaled, day 7, baseline 7"}, "[12]": {"details": "PPD n=1, IDR 6+12 mg inhaled, discharge, baseline 1"}, "[13]": {"details": "PPD n=1, IDR 6+12 mg inhaled, discharge, baseline 2"}, "[14]": {"details": "PPD n=1, IDR 6+12 mg inhaled, discharge, baseline 5"}, "[15]": {"details": "PPD n=1, IDR 6+12 mg inhaled, discharge, baseline 6"}, "[16]": {"details": "PPD n=1, IDR 6+12 mg inhaled, discharge, baseline 7"}}, "data": [{"smiles": "COc1ccc2[nH]cc(CCN(C)C)c2c1", "note": "[5-MeO-DMT]", "values": [{"measurement": "MADRS Reduced Sleep improvement", "setting": "[1]", "value": 5}, {"measurement": "MADRS Reduced Sleep score", "setting": "[1]", "value": 0}, {"measurement": "BPRS Depressive Mood improvement", "setting": "[2]", "value": 5}, {"measurement": "BPRS Depressive Mood score", "setting": "[2]", "value": 1}, {"measurement": "BPRS Guilt Feelings score", "setting": "[2]", "value": 1}, {"measurement": "BPRS Guilt feelings improvement", "setting": "[2]", "value": 5}, {"measurement": "BPRS Somatic Concern improvement", "setting": "[2]", "value": 5}, {"measurement": "BPRS Somatic Concern score", "setting": "[2]", "value": 1}, {"measurement": "BPRS Tension improvement", "setting": "[2]", "value": 5}, {"measurement": "BPRS Tension score", "setting": "[2]", "value": 1}, {"measurement": "BPRS Anxiety improvement", "setting": "[3]", "value": 6}, {"measurement": "BPRS Anxiety score", "setting": "[3]", "value": 1}, {"measurement": "MADRS Concentration Difficulties improvement", "setting": "[4]", "value": 0}, {"measurement": "MADRS Concentration Difficulties score", "setting": "[4]", "value": 0}, {"measurement": "MADRS Reduced appetite improvement", "setting": "[4]", "value": 0}, {"measurement": "MADRS Reduced appetite score", "setting": "[4]", "value": 0}, {"measurement": "MADRS Suicidal Thoughts improvement", "setting": "[4]", "value": 0}, {"measurement": "MADRS Suicidal Thoughts score", "setting": "[4]", "value": 0}, {"measurement": "BPRS Blunted Affect score", "setting": "[5]", "value": 1}, {"measurement": "BPRS Blunted affect improvement", "setting": "[5]", "value": 0}, {"measurement": "BPRS Conceptual disorganization improvement", "setting": "[5]", "value": 0}, {"measurement": "BPRS Conceptual disorganization score", "setting": "[5]", "value": 1}, {"measurement": "BPRS Disorientation improvement", "setting": "[5]", "value": 0}, {"measurement": "BPRS Disorientation score", "setting": "[5]", "value": 1}, {"measurement": "BPRS Grandiosity improvement", "setting": "[5]", "value": 0}, {"measurement": "BPRS Grandiosity score", "setting": "[5]", "value": 1}, {"measurement": "BPRS Hallucinatory behaviour improvement", "setting": "[5]", "value": 0}, {"measurement": "BPRS Hallucinatory behaviour score", "setting": "[5]", "value": 1}, {"measurement": "BPRS Hostility improvement", "setting": "[5]", "value": 0}, {"measurement": "BPRS Hostility score", "setting": "[5]", "value": 1}, {"measurement": "BPRS Mannerisms and Posturing improvement", "setting": "[5]", "value": 0}, {"measurement": "BPRS Mannerisms and Posturing score", "setting": "[5]", "value": 1}, {"measurement": "BPRS Motor retardation improvement", "setting": "[5]", "value": 0}, {"measurement": "BPRS Motor retardation score", "setting": "[5]", "value": 1}, {"measurement": "BPRS Suspiciousness improvement", "setting": "[5]", "value": 0}, {"measurement": "BPRS Suspiciousness score", "setting": "[5]", "value": 1}, {"measurement": "BPRS Uncooperativeness improvement", "setting": "[5]", "value": 0}, {"measurement": "BPRS Uncooperativeness score", "setting": "[5]", "value": 1}, {"measurement": "BPRS Unusual Thought Content improvement", "setting": "[5]", "value": 0}, {"measurement": "BPRS Unusual Thought Content score", "setting": "[5]", "value": 1}, {"measurement": "BPRS Excitement improvement", "setting": "[6]", "value": 1}, {"measurement": "BPRS Excitement score", "setting": "[6]", "value": 1}, {"measurement": "MADRS Inability to Feel improvement", "setting": "[7]", "value": 3}, {"measurement": "MADRS Inability to Feel score", "setting": "[7]", "value": 0}, {"measurement": "MADRS Lassitude improvement", "setting": "[7]", "value": 3}, {"measurement": "MADRS Lassitude score", "setting": "[7]", "value": 0}, {"measurement": "MADRS Pessimistic Thoughts improvement", "setting": "[8]", "value": 4}, {"measurement": "MADRS Pessimistic Thoughts score", "setting": "[8]", "value": 0}, {"measurement": "MADRS Reported sadness improvement", "setting": "[8]", "value": 4}, {"measurement": "MADRS Reported sadness score", "setting": "[8]", "value": 0}, {"measurement": "BPRS Emotional Withdrawal score", "setting": "[9]", "value": 1}, {"measurement": "BPRS Emotional withdrawal improvement", "setting": "[9]", "value": 4}, {"measurement": "MADRS Apparent sadness improvement", "setting": "[9]", "value": 5}, {"measurement": "MADRS Apparent sadness score", "setting": "[9]", "value": 0}, {"measurement": "MADRS Inner Tension improvement", "setting": "[9]", "value": 4}, {"measurement": "MADRS Inner Tension score", "setting": "[9]", "value": 1}, {"measurement": "MADRS Reduced Sleep improvement", "setting": "[9]", "value": 5}, {"measurement": "MADRS Reduced Sleep score", "setting": "[9]", "value": 0}, {"measurement": "BPRS Depressive Mood improvement", "setting": "[10]", "value": 5}, {"measurement": "BPRS Depressive Mood score", "setting": "[10]", "value": 1}, {"measurement": "BPRS Guilt Feelings score", "setting": "[10]", "value": 1}, {"measurement": "BPRS Guilt feelings improvement", "setting": "[10]", "value": 5}, {"measurement": "BPRS Somatic Concern improvement", "setting": "[10]", "value": 5}, {"measurement": "BPRS Somatic Concern score", "setting": "[10]", "value": 1}, {"measurement": "BPRS Tension improvement", "setting": "[10]", "value": 5}, {"measurement": "BPRS Tension score", "setting": "[10]", "value": 1}, {"measurement": "BPRS Anxiety improvement", "setting": "[11]", "value": 6}, {"measurement": "BPRS Anxiety score", "setting": "[11]", "value": 1}, {"measurement": "BPRS Blunted Affect score", "setting": "[12]", "value": 1}, {"measurement": "BPRS Blunted affect improvement", "setting": "[12]", "value": 0}, {"measurement": "BPRS Conceptual disorganization improvement", "setting": "[12]", "value": 0}, {"measurement": "BPRS Conceptual disorganization score", "setting": "[12]", "value": 1}, {"measurement": "BPRS Disorientation improvement", "setting": "[12]", "value": 0}, {"measurement": "BPRS Disorientation score", "setting": "[12]", "value": 1}, {"measurement": "BPRS Grandiosity improvement", "setting": "[12]", "value": 0}, {"measurement": "BPRS Grandiosity score", "setting": "[12]", "value": 1}, {"measurement": "BPRS Hallucinatory behaviour improvement", "setting": "[12]", "value": 0}, {"measurement": "BPRS Hallucinatory behaviour score", "setting": "[12]", "value": 1}, {"measurement": "BPRS Hostility improvement", "setting": "[12]", "value": 0}, {"measurement": "BPRS Hostility score", "setting": "[12]", "value": 1}, {"measurement": "BPRS Mannerisms and Posturing improvement", "setting": "[12]", "value": 0}, {"measurement": "BPRS Mannerisms and Posturing score", "setting": "[12]", "value": 1}, {"measurement": "BPRS Motor retardation improvement", "setting": "[12]", "value": 0}, {"measurement": "BPRS Motor retardation score", "setting": "[12]", "value": 1}, {"measurement": "BPRS Suspiciousness improvement", "setting": "[12]", "value": 0}, {"measurement": "BPRS Suspiciousness score", "setting": "[12]", "value": 1}, {"measurement": "BPRS Uncooperativeness improvement", "setting": "[12]", "value": 0}, {"measurement": "BPRS Uncooperativeness score", "setting": "[12]", "value": 1}, {"measurement": "BPRS Unusual Thought Content improvement", "setting": "[12]", "value": 0}, {"measurement": "BPRS Unusual Thought Content score", "setting": "[12]", "value": 1}, {"measurement": "BPRS Excitement improvement", "setting": "[13]", "value": 1}, {"measurement": "BPRS Excitement score", "setting": "[13]", "value": 1}, {"measurement": "BPRS Emotional Withdrawal score", "setting": "[14]", "value": 1}, {"measurement": "BPRS Emotional withdrawal improvement", "setting": "[14]", "value": 4}, {"measurement": "BPRS Depressive Mood improvement", "setting": "[15]", "value": 5}, {"measurement": "BPRS Depressive Mood score", "setting": "[15]", "value": 1}, {"measurement": "BPRS Guilt Feelings score", "setting": "[15]", "value": 1}, {"measurement": "BPRS Guilt feelings improvement", "setting": "[15]", "value": 5}, {"measurement": "BPRS Somatic Concern improvement", "setting": "[15]", "value": 5}, {"measurement": "BPRS Somatic Concern score", "setting": "[15]", "value": 1}, {"measurement": "BPRS Tension score", "setting": "[15]", "value": 1}, {"measurement": "BPRS Anxiety improvement", "setting": "[16]", "value": 6}, {"measurement": "BPRS Anxiety score", "setting": "[16]", "value": 1}, {"measurement": "ECG, safety laboratory analyses and CADSS assessments", "setting": "PPD n=1, ECG 3 hours, laboratory 7 days, CADSS 3 hours, 1 day and 7 days", "value": "unremarkable"}]}]}
